The results in this text go back to patent US20260242393A1, “Preparation Method for and Use of Dihydrothienopyrimidine Derivative” (Innovstone Therapeutics Limited, priority 2023, published 2026).

The nature of data set [1]: Pharmacokinetic assay in mice, plasma concentration by LC-MS/MS. The format is in vivo, CD-1 male mice. To be noted: male, CD-1, mouse. On the procedure:
Assay 2: Pharmacokinetic Assay by Using LC-MS/MS to Determine the Compound Concentration in Mice
Assay principle: LC-MS/MS was used to determine the drug concentration of the target drug in plasma at different times, and to plot the pharmacokinetic curve of the target compound in vivo.
An accurately weighed amount of the test compound was dissolved in 5% DMSO (INNOCHEM, INBZZHCAE) by vortex mixing. Subsequently, 10% Solutol (BASF, 75389809T0) was added and homogenized by vortexing.
Finally, 85% saline (Fengyuan, 220505102) was incorporated with vortex mixing to achieve dosing formulations at 0.4 mg/mL and 1.0 mg/mL.
The mice were sourced from CD-1 male mice (JH Laboratory Animal Co. LTD), with three mice for each group.
The mice were administered with 2 mg/kg intravenously (IV) or 10 mg/kg by oral gavage (PO). The blood samples were collected at 5 min (IV group only), 15 min, 30 min, 1 h, 2 h, 4h, 8h, and 24h (PO group only) after administration.
Approximately 30 μL blood samples were collected at each time point and placed into anticoagulant tubes containing EDTA-K2 anticoagulant. Plasma was obtained by centrifugation within 30 minutes. Whole blood samples before centrifugation were placed on wet ice. For each test compound, 42 plasma samples were collected.
All collected plasma samples were stored on dry ice or in a freezer until analysis. The drug concentration was determined using a Triple-quadrupole MS system (SCIEX), including standard curve and quality control preparation, and sample preparation.
Standard curve and quality control preparation: a working solution was prepared by ACN:H2O (1:1) dilution, and 3 μL of the above standard curve and quality control working solution was added to 57 μL of blank plasma.
Sample preparation: 7 μL of plasma sample was added to 70 μL of internal standard solution (Propranolol, Tolbutamide, Glipizide, Osalmid, each 200 ng/mL in ACN). The mixture was mixed for 5 minutes and centrifuged at 4000 rpm for 10 minutes. 50 μL of supernatant was taken and transferred to a new plate containing 200 μL ultrapure water for sample analysis.
Chromatographic conditions were optimized for each sample, regarding mobile phase composition, elution gradient conditions, flow rate, retention time, etc. The chromatographic column was Waters Acquity UPLC HSS T3 1.8 μm, 2.1×50 mm. The injection volume was 2 μL.
An electrospray ionization source was used in mass spectrometry. In the positive ion detection mode, the multi-channel reaction monitoring (MRM) mode was selected for secondary mass spectrometry analysis.
Based on the drug concentration-time data, pharmacokinetic parameters were calculated using WinNonlin 8.2 software according to a non-compartmental model, including peak concentration Cmax, peak time Tmax, area under the drug-time curve AUC, and elimination half-life t1/2. The AUC was calculated using the linear trapezoidal method (linear up log down).

For another data set, the target named is T1, PDE4B2 (Homo sapiens, UniProt Q07343).
T1 construct: purchased BPS bioscience
Briefly: In vitro PDE4B2 enzyme inhibitory activity (AMP-Glo). In kind it is biochemical.

Setting [2] is: PDE4B2 enzyme inhibition, read-out: PDE4B2 IC50.
Setting [3] is: read-out: IC50 values of PDE4B2 enzyme inhibition.

Read-outs that look alike come from different tables or passages of the source. Bounds are passed on as bounds.

T1 sequence (Q07343 1-564 isoform Q07343-2): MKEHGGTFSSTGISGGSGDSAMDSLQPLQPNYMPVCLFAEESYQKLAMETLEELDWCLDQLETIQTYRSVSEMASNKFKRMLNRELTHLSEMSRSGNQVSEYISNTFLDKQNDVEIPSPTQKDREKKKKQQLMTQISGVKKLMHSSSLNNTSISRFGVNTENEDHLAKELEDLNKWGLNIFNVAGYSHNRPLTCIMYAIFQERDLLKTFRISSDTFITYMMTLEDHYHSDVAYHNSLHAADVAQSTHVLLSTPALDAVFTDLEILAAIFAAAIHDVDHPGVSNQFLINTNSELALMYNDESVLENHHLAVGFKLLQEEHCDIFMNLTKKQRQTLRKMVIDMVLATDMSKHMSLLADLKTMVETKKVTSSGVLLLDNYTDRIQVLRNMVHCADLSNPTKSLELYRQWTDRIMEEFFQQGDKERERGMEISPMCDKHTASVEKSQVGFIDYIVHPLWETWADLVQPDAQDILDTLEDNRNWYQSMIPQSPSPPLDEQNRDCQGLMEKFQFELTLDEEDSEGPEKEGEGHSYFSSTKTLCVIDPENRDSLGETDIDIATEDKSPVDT
Method for PDE4B2: 2.1.1 Preparing stock solutions of compounds in DMSO: Compound powders were dissolved in 100% DMSO to produce 10 mM stock solutions, and oscillated in a shaker until the compounds were completely dissolved.
2.1.3 Preparing working stock solutions: a) A solution of Roflumilast (reference compound) in DMSO was diluted to 60 μM, and then serially diluted 4-fold into 10 concentration gradients. B) The solutions of the test compounds in DMSO were diluted to 200 μM, and then serially diluted 3-fold. C) A 200× positive control (60 μM Roflumilast) and a 200× vehicle control (100% DMSO) were prepared. D) The assay plate was centrifuged at 1000 rpm for 1 minute.
(1) 20 nL of compound dilution solutions were transferred with Echo 550 into each well of the assay plate.
(2) The assay plate was sealed and centrifuged at 1000 rpm for 1 minute.
(3) 2×PDE4B2/PDE4D2 was prepared in an ice-cold PDE assay buffer.
(4) 2 μL of 2×PDE4B2/PDE4D2 was added to each well of the assay plate prepared in step 2.
(5) The assay plate was sealed and allowed to equilibrate at room temperature for 10 minutes.
(6) 2× Cyclic-3′,5′-AMP was prepared in a PDE assay buffer.
7) 2 μL of 2× Cyclic-3′,5′-AMP (prepared in step 6) was added to each well of the assay plate (prepared in step 5) to initiate the reaction. The plate was incubated at room temperature for 60 minutes.
8) 4 μL AMP-Glo Reagent I was added, and the plate was incubated at room temperature for 60 minutes.
9) 8 μL AMP detection reagent was added. The plate was incubated at room temperature for 60 minutes.
10) The RLU signal was read on an Envision 2105 plate reader.

Broadly, the AUC(0-inf) is total exposure, with the tail of the curve extrapolated. A low value points to less exposure. One may read the clearance as the rate of elimination divided by the concentration. One may read the half-life as the time needed for the level to fall by half in the phase considered. What is called Cmax is the highest concentration seen after dosing. As usually defined, the Tmax is the time at which the peak concentration occurs. Usually IC50 stands for the concentration that inhibits the measured activity by half. In data set [1] (IV, 2 mg/kg), `[O-][S+]1CCc2nc(N3CCC(c4ncc(Cl)cn4)CC3)nc(NC3(CO)CCC3)c21` (stereo not drawn) [Control 1, reference compound] gave a total exposure AUC(0-inf) of 2900 ng·h/mL, a clearance of 11.8 mL/min/kg and a half-life of 1.57 h. Moreover, in data set [1] (PO, 10 mg/kg), the AUC(0-inf) is 12100 ng·h/mL, the maximum concentration (Cmax) is 2250 ng/mL and the time to peak (Tmax) was 0.5 h. Besides, at PDE4B2 (setting [2]), the IC50 was in the range of 20 to 50 nM.

In data set [1] (IV, 2 mg/kg), `[O-][S+]1CCc2nc(N3Cc4ccc(Cl)cc4C3)nc(NC3(CO)CCC3)c21` (racemic) [Compound 25, (R/S)-2-(5-chloroisoindolin-2-yl)-4-((1-(hydroxymethyl)cyclobutyl)amino)-6,7-dihydrothieno[3,2-d]pyrimidine 5-oxide] showed an AUC(0-inf) of 17600 ng·h/mL, a clearance of 2.4 mL/min/kg and a half-life of 5.01 h. In data set [1] (PO, 10 mg/kg), the AUC(0-inf) worked out at 23100 ng·h/mL, the Cmax worked out at 5950 ng/mL and the Tmax worked out at 1.33 h. At PDE4B2 (setting [2]), the IC50 fell in the range of 2 to 5 nM.

As to `COC1(c2ccc(N(C)C)cc2)CN(c2nc3c(c(NC4(CO)CCC4)n2)[S+]([O-])CC3)C1` (racemic) [Compound 109, (R/S)-2-(3-(4-(dimethylamino)phenyl)-3-methoxyazetidin-1-yl)-4-((1-(hydroxymethyl)cyclobutyl)amino)-6,7-dihydrothieno[3,2-d]pyrimidine 5-oxide], the values for the IC50 at PDE4B2 (setting [2]) and at PDE4B2 (setting [3]) were no more than 2 nM and less than 1 nM, respectively.

Consider `[O-][S+]1CCc2nc(N3CC=C(c4ccc(OC(F)F)cc4)C3)nc(NC3(CO)CCC3)c21` (racemic) [Compound 14, (R/S)-2-(3-(4-(difluoromethoxy)phenyl)-2,5-dihydro-1H-pyrrol-1-yl)-4-((1-(hydroxymethyl)cyclobutyl)amino)-6,7-dihydrothieno[3,2-d]pyrimidine 5-oxide], for which the IC50 on PDE4B2 (setting [2]) was in the range of 2 to 5 nM.

Regarding `COC1(c2ccc(N3CCCC3)cc2)CN(c2nc3c(c(NC4(CO)CCC4)n2)[S+]([O-])CC3)C1` (racemic) [Compound 107, (R/S)-4-((1-(hydroxymethyl)cyclobutyl)amino)-2-(3-methoxy-3-(4-(pyrrolidin-1-yl)phenyl)azetidin-1-yl)-6,7-dihydrothieno[3,2-d]pyrimidine 5-oxide], the IC50 is no more than 2 nM at PDE4B2 (setting [2]) and less than 1 nM on PDE4B2 (setting [3]).

On to `[O-][S+]1CCc2nc(N3CC(O)(c4ccc(C(F)(F)F)cc4)C3)nc(NC3(CO)CCC3)c21` (racemic) [Compound 7, (R/S)-2-(3-hydroxy-3-(4-(trifluoromethyl)phenyl)azetidin-1-yl)-4-((1-(hydroxymethyl)cyclobutyl)amino)-6,7-dihydrothieno[3,2-d]pyrimidine 5-oxide], for which the IC50 at PDE4B2 (setting [2]) lay within 2 to 5 nM.

With `COc1ccc(C2(OC)CN(c3nc4c(c(NC5CCOCC5)n3)[S+]([O-])CC4)C2)cc1` (racemic) [Compound 108, (R/S)-2-(3-methoxy-3-(4-methoxyphenyl)azetidin-1-yl)-4-((tetrahydro-2H-pyran-4-yl)amino)-6,7-dihydrothieno[3,2-d]pyrimidine 5-oxide], the IC50 on PDE4B2 (setting [2]) was no more than 2 nM; on PDE4B2 (setting [3]), less than 1 nM.

Regarding `CS(=O)(=O)Nc1ccc2c(c1)CN(c1nc3c(c(NC4(CO)CCC4)n1)[S+]([O-])CC3)C2` (racemic) [Compound 31, (R/S)—N-(2-(4-((1-(hydroxymethyl)cyclobutyl)amino)-5-oxido-6,7-dihydrothieno[3,2-d]pyrimidin-2-yl)isoindolin-5-yl)methanesulfonamide], the IC50 at PDE4B2 (setting [2]) fell in the range of 2 to 5 nM.

Turning to `[O-][S+]1CCc2nc(N3Cc4ccc(C(F)F)cc4C3)nc(NC3(CO)CCC3)c21` (racemic) [Compound 91, (R/S)-2-(5-(difluoromethyl)isoindolin-2-yl)-4-((1-(hydroxymethyl)cyclobutyl)amino)-6,7-dihydrothieno[3,2-d]pyrimidine 5-oxide], the concentration for half-maximal inhibition (IC50) at PDE4B2 (setting [2]) lay in the range of 2 to 5 nM.
